Measurements reported in ChEMBL document CHEMBL1158214, “Rollinecins A and B: two new bioactive annonaceous acetogenins from Rollinia mucosa” (J Nat Prod, 1996).
In brackets after ≈: the same amount, converted by molar mass.

How the values were obtained:
HT-29 = assay: Cytotoxicity against human HT29 cells; assay type: functional; settings: read-out: ED50 (the source's name)
A549 = assay: Cytotoxicity against human A549 cells; assay type: functional
MCF7 = assay: Cytotoxicity against human MCF7 cells; assay type: functional; settings: read-out: ED50 (the source's name)
A498 = assay: Cytotoxicity against human A498 cells; assay type: functional
PC-3 = assay: Cytotoxicity against human PC3 cells; assay type: functional
MIA PaCa-2 = assay: Cytotoxicity against human MIAPaCa2 cells; assay type: functional
[1] = Toxicity in brine shrimp; assay type: organism-based; settings: artemia, in vivo

Compound	EC50 (HT-29)	EC50 (A549; Homo sapiens, A549, read-out: ED50 (the source's name))	EC50 (MCF7)	EC50 (A498; Homo sapiens, A498, read-out: ED50 (the source's name))	EC50 (PC-3; Homo sapiens, PC-3, read-out: ED50 (the source's name))	EC50 (MIA PaCa-2; Homo sapiens, MIA PaCa-2, read-out: ED50 (the source's name))	LC50 [1]	ED50 (A549)	ED50 (A498)	ED50 (PC-3)	ED50 (MIA PaCa-2)
COc1cccc2c1C(=O)c1c(O)c3c(c(O)c1C2=O)C[C@@](O)(C(=O)CO)C[C@@H]3O[C@H]1C[C@H](N)[C@H](O)[C@H](C)O1 [DOXORUBICIN]	0.0193 µg/mL (≈ 0.0355 µM)	0.00157 µg/mL (≈ 0.00289 µM)	0.0968 µg/mL (≈ 0.178 µM)	0.0019 µg/mL (≈ 0.0035 µM)	0.0281 µg/mL (≈ 0.0517 µM)	0.0224 µg/mL (≈ 0.0412 µM)					
CCCCCCCCCCCC[C@H](O)[C@H]1CC[C@H]([C@H](O)CC[C@H](O)CCCCCCCCC[C@@H](O)CC2=C[C@H](C)OC2=O)O1 [ROLLINECIN A]	1.6 µg/mL (≈ 2.56 µM)		1.44 µg/mL (≈ 2.3 µM)				0.31 µg/mL (≈ 0.496 µM)	1.14 ×10⁻⁴ ug/ml	7.25 ×10⁻⁴ ug/ml	2.62 ×10⁻⁴ ug/ml	3.47 ×10⁻⁵ ug/ml
CCCCCCCCCCCC[C@H](O)[C@H]1CC[C@H]([C@H](O)CC[C@@H](O)CCCCCCCCC[C@@H](O)CC2=C[C@H](C)OC2=O)O1 [ROLLINECIN B]	1.44 µg/mL (≈ 2.3 µM)		2.72 µg/mL (≈ 4.35 µM)				0.13 µg/mL (≈ 0.208 µM)	4.23 ×10⁻⁴ ug/ml	2.29 ×10⁻⁴ ug/ml	3.62 ×10⁻⁴ ug/ml	2.53 ×10⁻⁴ ug/ml
